Broadly, the IC50 is the midpoint of a concentration-inhibition curve.

The results in this text go back to US20240239801A1, “PYRIMIDO[5,4,D]PYRIMIDINE COMPOUNDS, COMPOSITIONS COMPRISING THEM AND USES THEREOF” (Université de Montréal, priority 2021, published 2024).

One test addresses CRAF (Homo sapiens, UniProt P04049). As to the kind of experiment: CRAF kinase activity assay (ADP-Glo). It is filed as biochemical. The following applies: Table 3. Put shortly: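 CRAF inhibition was measured by ADP-Glo. 0.375 nM purified GST-tagged CRAF was combined with 75 nM kinase-dead MEK1 substrate and 10 μM ATP in 50 mM HEPES pH 7.5, 10 mM MgCl2, 1 mM EDTA, 0.01% Brij-35 and 2 mM DTT, with nine compound concentrations from 100 nM to 0.01 nM (0.05% DMSO), in 384-well plates for 2 hours at 30° C. Luminescence was read after adding ADP-Glo and Kinase Detection reagents. IC50 came from four-parameter curve fits.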

A further test has as its target T1, BRAF (Homo sapiens, UniProt P15056).
T1 construct: GST; purchased Millipore Sigma B4062-10UG
As to the kind of experiment: BRAF kinase activity assay (ADP-Glo). It is filed as biochemical. The following applies: Table 3. Put shortly: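 GST-tagged BRAF (0.375 nM) was reacted with 75 nM kinase-dead MEK1 and 10 μM ATP for 2 h at 30 °C in HEPES pH 7.5 buffer with MgCl2, EDTA, Brij-35 and DTT. Compounds were tested at nine concentrations from 100 nM to 0.01 nM with 0.05% DMSO final. ADP-Glo luminescence gave % inhibition, and IC50 came from a four-parameter fit.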
Background: ADP-Glo first removes unused ATP, then detects ADP through luciferase.

Another test relates to HCT116 pERK. Nature of the test: Phospho-ERK inhibition, AlphaLISA SureFire Ultra p-ERK 1/2. It is filed as cell-based, human. The settings on record: for HCT116 pERK, value in parentheses, % inhibition: % Ymin of pERK IC50 curve; for HCT116 (Ymin %): lowest value of the pERK IC50 curve. Put shortly:
(§1)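 Cells plated in RPMI-1640 with 5% FBS, held overnight, then exposed 1 h to ten-point compound dilutions (top 30 or 10 μM down to 0.33 nM; 0.5% DMSO). Lysates read for p-ERK1/2 (Thr202/Tyr204) by AlphaLISA; % inhibition relative to DMSO after subtracting a 1 μM trametinib background; IC50 from four-parameter fit.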
(In Alpha technology, singlet oxygen from a donor bead excites a nearby acceptor bead.)

The test system of a further test is SW480 pERK. The test is described as above. The following applies: for SW480 (Ymin %): lowest value of the pERK IC50 curve; for SW480 pERK, value in parentheses, % inhibition: % Ymin of pERK IC50 curve. It is filed as cell-based, human. The method, boiled down: as §1
Setting [1] is: Homo sapiens, HCT-116, Table D-1.
The mark [2] stands for this setting: Homo sapiens, SW480, Table D-2, read-out: SW480 pERK IC50.
Setting [3] is: Table 3, 1 h treatment, read-out: SW480 PERK IC50.
Setting [4] is: Table D-2, read-out: SW480 pERK IC50.

Like-named read-outs stand apart in the source and are kept apart here. Bounds are passed on as bounds.

T1 sequence (P15056 whole entry): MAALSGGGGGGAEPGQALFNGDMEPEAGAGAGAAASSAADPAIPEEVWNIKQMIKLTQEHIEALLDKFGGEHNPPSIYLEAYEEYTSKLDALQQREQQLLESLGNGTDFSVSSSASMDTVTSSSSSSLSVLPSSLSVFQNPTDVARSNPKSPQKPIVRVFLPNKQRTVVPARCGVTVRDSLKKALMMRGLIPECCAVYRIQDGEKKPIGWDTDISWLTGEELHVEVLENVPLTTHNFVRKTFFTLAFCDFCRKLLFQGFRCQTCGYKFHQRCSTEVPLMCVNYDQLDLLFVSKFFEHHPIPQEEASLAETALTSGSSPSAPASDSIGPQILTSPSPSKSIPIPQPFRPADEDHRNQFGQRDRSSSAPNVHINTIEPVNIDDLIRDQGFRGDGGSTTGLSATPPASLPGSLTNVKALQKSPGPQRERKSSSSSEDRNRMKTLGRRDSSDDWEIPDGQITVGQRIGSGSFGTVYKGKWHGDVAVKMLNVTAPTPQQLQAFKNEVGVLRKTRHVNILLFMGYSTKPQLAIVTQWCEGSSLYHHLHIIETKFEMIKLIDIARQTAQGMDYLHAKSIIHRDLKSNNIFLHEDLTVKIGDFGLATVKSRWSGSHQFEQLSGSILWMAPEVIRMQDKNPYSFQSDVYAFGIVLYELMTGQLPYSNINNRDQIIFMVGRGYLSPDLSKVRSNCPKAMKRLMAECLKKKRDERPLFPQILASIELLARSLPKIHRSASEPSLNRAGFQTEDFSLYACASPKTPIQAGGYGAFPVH
Chain of CRAF (P04049 whole entry): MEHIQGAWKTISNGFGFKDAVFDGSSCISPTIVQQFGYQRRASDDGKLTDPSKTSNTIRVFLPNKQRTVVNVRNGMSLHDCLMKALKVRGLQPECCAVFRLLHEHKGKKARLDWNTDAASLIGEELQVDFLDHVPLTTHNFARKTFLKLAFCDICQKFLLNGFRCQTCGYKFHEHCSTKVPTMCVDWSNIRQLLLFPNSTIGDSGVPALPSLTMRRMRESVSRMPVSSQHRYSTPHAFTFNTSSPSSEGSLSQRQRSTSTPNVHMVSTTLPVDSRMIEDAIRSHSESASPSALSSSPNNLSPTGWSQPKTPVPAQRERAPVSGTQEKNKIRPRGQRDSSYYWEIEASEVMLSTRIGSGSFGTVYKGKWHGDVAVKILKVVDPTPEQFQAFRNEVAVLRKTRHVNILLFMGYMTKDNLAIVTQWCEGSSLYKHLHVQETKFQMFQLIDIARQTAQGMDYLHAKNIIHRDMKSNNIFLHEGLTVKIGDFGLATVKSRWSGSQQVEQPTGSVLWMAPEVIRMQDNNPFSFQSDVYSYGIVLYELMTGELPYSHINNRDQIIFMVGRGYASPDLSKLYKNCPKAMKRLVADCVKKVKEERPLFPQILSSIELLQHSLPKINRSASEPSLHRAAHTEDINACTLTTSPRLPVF

In the case of `Cc1c(F)cccc1S(=O)(=O)Nc1ccc(F)c(Nc2ncnc3cnc(-n4cnc5c(-c6cccnc6)cccc54)nc23)c1F` [Example 114], the IC50 at CRAF was 10 to 50 nM; on BRAF, 1 to 10 nM; in the test with HCT116 pERK (Homo sapiens, HCT-116, Table 3, 1 h treatment) it was below 500 nM; in the test with HCT116 pERK (setting [1]), above 300 nM; in the test with SW480 pERK (Homo sapiens, SW480, Table 3, 1 h treatment, read-out: SW480 PERK IC50) it was below 500 nM; in the test with SW480 pERK (setting [2]), 30 to 300 nM. Besides, the “HCT116 pERK, value in parentheses, % inhibition” value (“HCT116 pERK … % inhibition” below) with HCT116 pERK (Table D-1) is “(−4.9) %”. Also, in the test with SW480 pERK (Table 3), the “SW480 (Ymin %)” value amounted to 2%. Further, the “SW480 pERK, value in parentheses, % inhibition” value (“SW480 pERK, value … % inhibition” below) in the test on SW480 pERK (Table D-2) is given as “(1) %”.

`Nc1cccc2c1ncn2-c1ncc2ncnc(Nc3c(F)ccc(NS(=O)(=O)c4cccc(Cl)c4Cl)c3F)c2n1` [Example 80]: the IC50 is below 10 nM at CRAF; below 1 nM at BRAF; below 500 nM in the test with HCT116 pERK (Table 3, 1 h treatment); below 500 nM in the test on SW480 pERK (setting [3]). Further, in the test with HCT116 pERK (Table 3), the “HCT116 (Ymin %)” value is on record as −7%. In addition, in the test on SW480 pERK (Table 3), the “SW480 (Ymin %)” value is given as −2%.

As to `COc1ccc(S(=O)(=O)Nc2ccc(F)c(Nc3ncnc4cnc(-n5cnc6c(N)cccc65)nc34)c2F)c(C)c1Cl` [Example 112], the IC50 on CRAF was 10 to 50 nM; on BRAF, above 10 nM; in the test with HCT116 pERK (Table 3, 1 h treatment) it was 500 to 1000 nM; in the test on HCT116 pERK (Table D-1), above 300 nM; in the test on SW480 pERK (setting [3]), below 500 nM; with SW480 pERK (setting [4]), 30 to 300 nM. Moreover, the “HCT116 (Ymin %)” value in the test on HCT116 pERK (Table 3) is reported as −0.8%. Further, the “HCT116 pERK … % inhibition” value in the test with HCT116 pERK (Table D-1) is given as “(−0.8) %”. For the same molecule, in the test with SW480 pERK (Table 3), the “SW480 (Ymin %)” value is −7%. Besides, the “SW480 pERK, value … % inhibition” value in the test with SW480 pERK (Table D-2) was “(−7) %”.

Consider `Cc1c(F)cccc1S(=O)(=O)Nc1ccc(F)c(Nc2ncnc3cnc(-n4cc(C(=O)N(C)Cc5ccncc5)c5ccccc54)nc23)c1F` [Example 98], for which the IC50 was 10 to 50 nM on CRAF; below 1 nM on BRAF; 30 to 300 nM in the test with HCT116 pERK (Table D-1); below 500 nM in the test with SW480 pERK (setting [3]); 30 to 300 nM in the test on SW480 pERK (setting [4]). Also, the “HCT116 (Ymin %)” value in the test on HCT116 pERK (Table 3) is given as “(−6.0) %”. For the same molecule, the “HCT116 pERK … % inhibition” value in the test with HCT116 pERK (Table D-1) is on record as “(−6.0) %”. Moreover, the “SW480 (Ymin %)” value in the test with SW480 pERK (Table 3) was −1%. In the test with SW480 pERK (Table D-2), the “SW480 pERK, value … % inhibition” value was “(−1) %”.

Regarding `O=S(=O)(Nc1ccc(F)c(Nc2ncnc3cnc(-n4cnc5c(N6CCC7(CCCO7)CC6)cccc54)nc23)c1F)c1cccc(Cl)c1Cl` [Example 129], the IC50 on CRAF is 10 to 50 nM; at BRAF it was above 10 nM; in the test with HCT116 pERK (Table 3, 1 h treatment) it was below 500 nM; in the test with HCT116 pERK (Table D-1) it was 30 to 300 nM; in the test on SW480 pERK (setting [3]), below 500 nM; with SW480 pERK (setting [4]), 30 to 300 nM. In addition, the “HCT116 (Ymin %)” value in the test with HCT116 pERK (Table 3) is recorded as −8%. Besides, the “HCT116 pERK … % inhibition” value in the test with HCT116 pERK (Table D-1) is reported as “(−8) %”. Moreover, in the test on SW480 pERK (Table 3), the “SW480 (Ymin %)” value was determined as 3%. For the same molecule, the “SW480 pERK, value … % inhibition” value in the test on SW480 pERK (Table D-2) is recorded as “(3) %”.

Take `Cc1ccc2c(Nc3cccc(Cl)c3F)nccc2c1NC(=O)c1csc2c(N)ncnc12` [Belvarafenib, reference compound]: the IC50 with HCT116 pERK (setting [1]) and in the test with SW480 pERK (setting [2]) was 30 to 300 nM throughout. The “HCT116 pERK … % inhibition” value in the test on HCT116 pERK (Table D-1) is given as “(−46) %”. The “SW480 pERK, value … % inhibition” value in the test with SW480 pERK (Table D-2) is on record as “(−100) %”.
